{
  "source": "ChEMBL document CHEMBL3611997",
  "about": "“4-Fluoro-3',4',5'-trimethoxychalcone as a new anti-invasive agent. From discovery to initial validation in an in vivo metastasis model” (Eur J Med Chem, 2015)",
  "key": {"[1]": {"assay": "Antiinvasive activity in human in BLM cells assessed as reduction of amount of cells present on filter at 10 umol/L after 24 hrs by matrigel invasion assay (reference value: 100%)", "format": "functional", "parameters": "scale not given: the % may be the effect or the level left"}, "[2]": {"assay": "Half life of the compound in PBS at pH 7.4 at 1 umol/L", "format": "ADME"}, "[3]": {"assay": "Half life in human blood at 1 umol/L", "format": "ADME, tissue-based"}, "CYP1A2": {"target": "T1, CYP1A2 (Homo sapiens, UniProt P05177)", "T1 sequence (P05177 whole entry)": "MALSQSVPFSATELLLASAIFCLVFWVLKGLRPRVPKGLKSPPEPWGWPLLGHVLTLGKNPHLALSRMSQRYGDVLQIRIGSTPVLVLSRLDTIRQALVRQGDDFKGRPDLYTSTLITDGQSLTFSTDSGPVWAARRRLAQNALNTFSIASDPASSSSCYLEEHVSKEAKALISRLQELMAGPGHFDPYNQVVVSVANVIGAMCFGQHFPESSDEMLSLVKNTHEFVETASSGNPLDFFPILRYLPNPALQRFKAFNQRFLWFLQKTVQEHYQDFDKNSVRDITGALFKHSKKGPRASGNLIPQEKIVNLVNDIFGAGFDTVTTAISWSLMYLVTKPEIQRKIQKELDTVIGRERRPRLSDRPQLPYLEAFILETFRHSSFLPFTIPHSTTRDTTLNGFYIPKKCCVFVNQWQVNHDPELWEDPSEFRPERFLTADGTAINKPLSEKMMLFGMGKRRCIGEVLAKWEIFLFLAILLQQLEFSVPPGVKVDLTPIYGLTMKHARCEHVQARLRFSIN", "assay": "Inhibition of CYP1A2 (unknown origin) at 10 umol/L", "format": "ADME"}, "CYP3A4": {"target": "CYP3A4 (Homo sapiens, UniProt P08684)", "sequence (P08684 whole entry)": "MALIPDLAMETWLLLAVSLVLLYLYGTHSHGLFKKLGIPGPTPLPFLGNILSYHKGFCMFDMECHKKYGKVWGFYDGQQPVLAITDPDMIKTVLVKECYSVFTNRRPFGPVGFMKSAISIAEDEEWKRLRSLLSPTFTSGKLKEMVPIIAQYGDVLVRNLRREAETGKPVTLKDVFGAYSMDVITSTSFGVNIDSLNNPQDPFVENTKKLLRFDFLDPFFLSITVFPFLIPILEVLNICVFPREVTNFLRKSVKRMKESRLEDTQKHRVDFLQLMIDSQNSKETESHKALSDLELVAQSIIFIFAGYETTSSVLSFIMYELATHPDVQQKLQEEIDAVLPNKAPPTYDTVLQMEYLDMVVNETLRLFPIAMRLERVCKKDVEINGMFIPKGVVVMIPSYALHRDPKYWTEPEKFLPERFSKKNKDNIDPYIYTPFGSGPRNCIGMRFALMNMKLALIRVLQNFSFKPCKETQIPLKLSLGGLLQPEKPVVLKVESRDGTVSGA", "assay": "Inhibition of CYP3A4 (unknown origin) at 10 umol/L", "format": "ADME"}, "[4]": {"assay": "Intrinsic clearance in human liver S9 fraction at 0.1 umol/L", "format": "ADME, subcellular", "conditions": "read-out: CLH"}, "[5]": {"assay": "Intrinsic clearance in Sprague-Dawley rat liver S9 fraction at 0.1 umol/L", "format": "ADME, subcellular", "conditions": "read-out: CLH"}, "[6]": {"assay": "Permeability across apical to basolateral side of human Caco2 cells assessed as compound recovery at 10 umol/L at pH 7.4", "format": "ADME, cell-based", "conditions": "Caco-2, pH 7.4, read-out: Drug recovery"}, "[7]": {"assay": "Permeability across basolateral to apical side of human Caco2 cells at 10 umol/L at pH 7.4", "format": "ADME, cell-based", "conditions": "Caco-2, pH 7.4, read-out: permeability"}, "hERG [8]": {"target": "T2, hERG (Homo sapiens, UniProt Q12809)", "T2 sequence (Q12809 whole entry)": "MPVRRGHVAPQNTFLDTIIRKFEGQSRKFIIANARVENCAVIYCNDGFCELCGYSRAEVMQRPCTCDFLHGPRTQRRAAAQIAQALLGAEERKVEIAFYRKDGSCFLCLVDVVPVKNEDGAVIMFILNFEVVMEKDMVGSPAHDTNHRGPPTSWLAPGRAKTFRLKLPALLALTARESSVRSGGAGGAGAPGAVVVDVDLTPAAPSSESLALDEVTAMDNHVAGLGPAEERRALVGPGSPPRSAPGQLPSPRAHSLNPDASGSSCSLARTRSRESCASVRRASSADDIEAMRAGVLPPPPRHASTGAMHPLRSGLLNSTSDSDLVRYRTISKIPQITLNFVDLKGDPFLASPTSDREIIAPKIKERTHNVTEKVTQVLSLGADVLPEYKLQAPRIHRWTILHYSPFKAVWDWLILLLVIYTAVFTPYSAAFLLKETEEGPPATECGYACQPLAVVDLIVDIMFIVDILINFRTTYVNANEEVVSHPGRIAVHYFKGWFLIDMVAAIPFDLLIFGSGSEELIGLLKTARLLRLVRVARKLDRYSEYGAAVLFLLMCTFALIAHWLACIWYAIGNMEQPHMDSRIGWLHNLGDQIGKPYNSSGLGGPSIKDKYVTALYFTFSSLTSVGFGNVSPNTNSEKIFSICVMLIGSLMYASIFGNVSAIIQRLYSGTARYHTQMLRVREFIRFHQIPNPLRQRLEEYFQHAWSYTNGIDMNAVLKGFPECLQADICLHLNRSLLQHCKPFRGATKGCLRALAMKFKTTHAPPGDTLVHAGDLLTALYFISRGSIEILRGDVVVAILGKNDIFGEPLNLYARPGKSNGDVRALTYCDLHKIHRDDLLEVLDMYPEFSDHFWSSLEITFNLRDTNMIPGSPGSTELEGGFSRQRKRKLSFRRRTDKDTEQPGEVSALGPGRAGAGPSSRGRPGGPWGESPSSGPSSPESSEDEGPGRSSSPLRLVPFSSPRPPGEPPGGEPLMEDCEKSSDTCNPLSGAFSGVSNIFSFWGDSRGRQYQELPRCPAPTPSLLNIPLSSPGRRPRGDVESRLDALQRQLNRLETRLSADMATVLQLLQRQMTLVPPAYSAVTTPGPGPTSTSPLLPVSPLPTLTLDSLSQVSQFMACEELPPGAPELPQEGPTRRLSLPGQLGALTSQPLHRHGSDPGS", "assay": "Inhibition of human ERG assessed as reduction of tail current at 0.1 umol/L"}, "hERG [9]": {"target": "T2, hERG", "assay": "Inhibition of human ERG assessed as reduction of tail current at 1 umol/L"}, "[10]": {"assay": "Toxicity in human HepG2 cells assessed as cell viability at 0.1 umol/L", "format": "cell-based", "conditions": "read-out: Activity"}, "[11]": {"assay": "Toxicity in human HepG2 cells assessed as cell viability at 1 umol/L", "format": "cell-based", "conditions": "read-out: Activity"}, "[12]": {"assay": "Toxicity in human HepG2 cells assessed as cell viability at 10 umol/L", "format": "cell-based", "conditions": "read-out: Activity"}, "[13]": {"assay": "Toxicity in human HepG2 cells assessed as cell viability", "format": "cell-based", "conditions": "HepG2 cells"}, "Mus musculus [14]": {"test_system": "Mus musculus", "assay": "Toxicity in Swiss nu/nu mouse assessed as histological anomalies in liver at 1.6 to 160 mg/kg, ip administered three times a week for two-week period measured on day 15", "format": "organism-based", "conditions": "in vivo"}, "Mus musculus [15]": {"test_system": "Mus musculus", "assay": "Toxicity in Swiss nu/nu mouse assessed as hematological anomalies by measuring WBC count at 1.6 mg/kg, ip administered three times a week for two-week period measured on day 15 (reference value: 2420 +/- 782 /microL)", "format": "organism-based", "conditions": "in vivo"}, "Mus musculus [16]": {"test_system": "Mus musculus", "assay": "Toxicity in Swiss nu/nu mouse assessed as hematological anomalies by measuring WBC count at 16 mg/kg, ip administered three times a week for two-week period measured on day 15 (reference value: 2420 +/- 782 /microL)", "format": "organism-based", "conditions": "in vivo"}, "Mus musculus [17]": {"test_system": "Mus musculus", "assay": "Toxicity in Swiss nu/nu mouse assessed as hematological anomalies by measuring ALT level at 1.6 mg/kg, ip administered three times a week for two-week period measured on day 15 (reference value: 29.6 +/- 5.6 IU/L)", "format": "organism-based", "conditions": "in vivo"}, "Mus musculus [18]": {"test_system": "Mus musculus", "assay": "Toxicity in Swiss nu/nu mouse assessed as hematological anomalies by measuring ALT level at 160 mg/kg, ip administered three times a week for two-week period measured on day 15 (reference value: 29.6 +/- 5.6 IU/L)", "format": "organism-based", "conditions": "in vivo"}, "Mus musculus [19]": {"test_system": "Mus musculus", "assay": "Toxicity in Swiss nu/nu mouse assessed as hematological anomalies by measuring creatinine level at 1.6 mg/kg, ip administered three times a week for two-week period measured on day 15 (reference value: 0.29 +/- 0.02 mg/dL)", "format": "organism-based", "conditions": "in vivo"}, "Mus musculus [20]": {"test_system": "Mus musculus", "assay": "Toxicity in Swiss nu/nu mouse assessed as hematological anomalies by measuring creatinine level at 16 mg/kg, ip administered three times a week for two-week period measured on day 15 (reference value: 0.29 +/- 0.02 mg/dL)", "format": "organism-based", "conditions": "in vivo"}, "[21]": {"assay": "Antimetastasis activity against human MCF7/6 cells xenografted in Swiss nu/nu mouse assessed as increase of survival time at 160 mg/kg, ip administered thrice a week relative to control", "format": "functional"}, "MCF7/6": {"test_system": "MCF7/6", "assay": "Inhibition of cell migration in human MCF7/6 cells at 0.01 to 10 umol/L after 24 hrs by wound scratch assay", "format": "functional, cell-based"}, "[22]": {"assay": "Cytotoxicity against human MCF7/6 cells assessed as reduction of cellular protein content at 0.01 to 100 umol/L after 6 days by SRB assay", "format": "cell-based", "conditions": "mcf7/6, 144 h"}, "MCF10": {"test_system": "MCF10", "assay": "Cytotoxicity against human MCF10 cells assessed as reduction of mitochondrial activity at 0.01 to 100 umol/L after 6 days by MTT assay", "format": "cell-based", "conditions": "mcf10, 144 h"}, "MDA-MB-231": {"test_system": "MDA-MB-231", "assay": "Cytotoxicity against human MDA-MB-231 cells expressing GFP-Luc assessed as reduction of cellular protein content at 0.01 to 100 umol/L after 6 days by SRB assay", "format": "cell-based", "conditions": "mda-mb-231, 144 h"}, "[23]": {"assay": "Cytotoxicity against human BLM cells assessed as reduction of mitochondrial activity at > 10 umol/L after 24 hrs by MTT assay", "format": "cell-based"}, "Tubulin (Sus scrofa)": {"target": "Tubulin (Sus scrofa) (UniProt P02554+P02550)", "sequence (P02550 whole entry, looked up)": "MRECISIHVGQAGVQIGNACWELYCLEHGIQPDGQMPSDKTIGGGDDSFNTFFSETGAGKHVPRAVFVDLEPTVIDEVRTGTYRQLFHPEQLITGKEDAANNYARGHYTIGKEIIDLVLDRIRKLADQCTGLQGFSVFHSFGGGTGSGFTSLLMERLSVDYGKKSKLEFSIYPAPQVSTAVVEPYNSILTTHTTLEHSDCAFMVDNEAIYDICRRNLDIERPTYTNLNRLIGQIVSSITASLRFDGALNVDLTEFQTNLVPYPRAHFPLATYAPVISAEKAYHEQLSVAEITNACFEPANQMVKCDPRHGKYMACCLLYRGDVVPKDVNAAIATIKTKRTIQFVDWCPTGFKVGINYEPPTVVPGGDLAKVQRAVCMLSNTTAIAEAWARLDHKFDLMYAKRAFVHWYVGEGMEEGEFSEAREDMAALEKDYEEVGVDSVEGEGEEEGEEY", "sequence (P02554 whole entry, looked up)": "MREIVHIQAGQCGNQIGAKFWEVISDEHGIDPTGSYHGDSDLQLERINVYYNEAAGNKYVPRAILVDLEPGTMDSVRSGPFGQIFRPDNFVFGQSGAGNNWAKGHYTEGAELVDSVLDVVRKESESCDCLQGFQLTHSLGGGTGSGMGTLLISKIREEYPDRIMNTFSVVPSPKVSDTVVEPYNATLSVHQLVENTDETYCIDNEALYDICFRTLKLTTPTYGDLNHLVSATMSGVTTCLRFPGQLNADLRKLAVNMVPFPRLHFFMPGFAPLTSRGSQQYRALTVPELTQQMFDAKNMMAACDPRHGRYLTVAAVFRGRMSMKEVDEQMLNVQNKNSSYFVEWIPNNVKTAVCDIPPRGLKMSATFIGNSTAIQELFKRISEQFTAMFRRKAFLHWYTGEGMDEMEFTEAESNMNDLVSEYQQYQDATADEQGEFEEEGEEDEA", "assay": "Inhibition of porcine brain tubulin polymerization assessed as microtubule assembly at 1 umol/L after 15 mins by DAPI staining"}, "[24]": {"target": "Vascular endothelial growth factor receptor 2 (Homo sapiens) (UniProt P35968)", "sequence (P35968 whole entry)": "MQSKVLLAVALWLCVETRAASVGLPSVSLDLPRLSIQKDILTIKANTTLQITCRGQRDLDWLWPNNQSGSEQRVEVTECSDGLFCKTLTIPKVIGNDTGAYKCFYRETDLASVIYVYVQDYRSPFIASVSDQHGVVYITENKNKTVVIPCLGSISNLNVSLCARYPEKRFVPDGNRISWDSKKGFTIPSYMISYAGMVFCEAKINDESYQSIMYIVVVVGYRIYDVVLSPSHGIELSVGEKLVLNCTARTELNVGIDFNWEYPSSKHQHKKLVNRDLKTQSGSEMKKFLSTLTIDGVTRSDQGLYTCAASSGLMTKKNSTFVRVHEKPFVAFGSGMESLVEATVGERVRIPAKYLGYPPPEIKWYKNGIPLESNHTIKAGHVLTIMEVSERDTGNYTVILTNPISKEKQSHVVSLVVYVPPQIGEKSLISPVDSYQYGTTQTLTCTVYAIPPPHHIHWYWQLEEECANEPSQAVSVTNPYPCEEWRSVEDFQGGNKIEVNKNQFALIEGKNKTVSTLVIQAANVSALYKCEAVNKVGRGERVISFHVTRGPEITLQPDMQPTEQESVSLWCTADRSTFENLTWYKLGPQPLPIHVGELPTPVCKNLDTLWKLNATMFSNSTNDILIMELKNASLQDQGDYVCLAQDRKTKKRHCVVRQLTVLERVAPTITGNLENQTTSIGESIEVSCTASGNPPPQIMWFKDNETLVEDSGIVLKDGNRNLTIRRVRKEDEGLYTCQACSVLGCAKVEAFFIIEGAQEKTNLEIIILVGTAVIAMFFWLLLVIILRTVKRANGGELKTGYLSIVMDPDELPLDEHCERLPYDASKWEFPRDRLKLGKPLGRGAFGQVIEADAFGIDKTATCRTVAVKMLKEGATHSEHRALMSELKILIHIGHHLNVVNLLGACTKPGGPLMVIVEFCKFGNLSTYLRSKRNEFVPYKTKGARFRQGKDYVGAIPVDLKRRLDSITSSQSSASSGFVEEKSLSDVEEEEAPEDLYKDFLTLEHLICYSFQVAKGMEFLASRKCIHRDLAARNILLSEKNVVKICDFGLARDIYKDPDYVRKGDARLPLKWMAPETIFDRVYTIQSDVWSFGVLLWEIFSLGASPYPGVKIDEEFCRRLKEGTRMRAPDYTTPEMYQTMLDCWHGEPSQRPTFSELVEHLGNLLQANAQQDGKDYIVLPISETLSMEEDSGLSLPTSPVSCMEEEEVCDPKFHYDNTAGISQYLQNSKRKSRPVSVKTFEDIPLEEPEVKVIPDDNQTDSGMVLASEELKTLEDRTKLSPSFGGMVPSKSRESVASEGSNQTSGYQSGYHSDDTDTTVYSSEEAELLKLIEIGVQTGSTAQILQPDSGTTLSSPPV", "assay": "Inhibition of human KDR using and Ulight-CAGAGAIETDKEYYTVKD as substrate at 0.1 umol/L after 1 hr by FRET assay"}},
  "note": "Calls of active or inactive are those of the source. The rule behind the calls is not given here.",
  "data": [
    {"smiles": "COc1cc(C(=O)/C=C/c2ccc(F)cc2)cc(OC)c1OC", "values": [
      {"measurement": "Activity", "setting": "[1]", "value": 7, "unit": "%"},
      {"measurement": "half-life at 1 µM", "setting": "[2]", "value": "> 240", "unit": "min"},
      {"measurement": "half-life at 1 µM", "setting": "[3]", "value": 10, "unit": "min"},
      {"measurement": "inhibition at 10 µM", "setting": "CYP1A2", "value": 35.7, "unit": "%"},
      {"measurement": "inhibition at 10 µM", "setting": "CYP3A4", "value": 27.2, "unit": "%"},
      {"measurement": "microsomal CLint at 0.1 µM", "setting": "[4]", "value": 57.3, "unit": "µL/min/mg"},
      {"measurement": "microsomal CLint at 0.1 µM", "setting": "[5]", "value": 116, "unit": "µL/min/mg"},
      {"measurement": "recovery at 10 µM", "setting": "[6]", "value": 17, "unit": "%"},
      {"measurement": "Papp B→A at 10 µM", "setting": "[7]", "value": 4.9, "unit": "×10⁻⁶ cm/s"},
      {"measurement": "inhibition at 0.1 µM", "setting": "hERG [8]", "value": 3.7, "unit": "%"},
      {"measurement": "inhibition at 1 µM", "setting": "hERG [9]", "value": 9.8, "unit": "%"},
      {"measurement": "viability at 0.1 µM", "setting": "[10]", "value": 93.7, "unit": "%"},
      {"measurement": "viability at 1 µM", "setting": "[11]", "value": 93.8, "unit": "%"},
      {"measurement": "viability at 10 µM", "setting": "[12]", "value": 44.3, "unit": "%"},
      {"measurement": "EC50", "setting": "[13]", "value": 10, "unit": "µM"},
      {"measurement": "Activity", "setting": "Mus musculus [14]", "value": "Non-toxic"},
      {"measurement": "Activity", "setting": "Mus musculus [15]", "value": 4400, "unit": "µL⁻¹"},
      {"measurement": "Activity", "setting": "Mus musculus [16]", "value": 5960, "unit": "µL⁻¹"},
      {"measurement": "Activity", "setting": "Mus musculus [17]", "value": 30.5, "unit": "IU/L"},
      {"measurement": "Activity", "setting": "Mus musculus [18]", "value": 33.2, "unit": "IU/L"},
      {"measurement": "Activity", "setting": "Mus musculus [19]", "value": 0.22, "unit": "mg/dL"},
      {"measurement": "Activity", "setting": "Mus musculus [20]", "value": 0.32, "unit": "mg/dL"},
      {"measurement": "Survival", "setting": "[21]", "value": 34, "unit": "days"},
      {"measurement": "inhibition", "setting": "MCF7/6", "value": "inactive"},
      {"measurement": "Activity", "setting": "[22]", "value": "Non-toxic"},
      {"measurement": "Activity", "setting": "MCF10", "value": "Non-toxic"},
      {"measurement": "Activity", "setting": "MDA-MB-231", "value": "Non-toxic"},
      {"measurement": "Activity", "setting": "[23]", "value": "Toxic"},
      {"measurement": "inhibition", "setting": "Tubulin (Sus scrofa)", "value": -0.8, "unit": "%"},
      {"measurement": "inhibition", "setting": "[24]", "value": -3.5, "unit": "%"}
    ]}
  ]
}
